Results as given in patent publication US8394952B2 (Vertex Pharmaceuticals Incorporated, priority 2006, dated 2013).

Biological target: Plk1 (Homo sapiens, UniProt P53350)
Experiment: biochemical

Chain of Plk1 (P53350 20-338): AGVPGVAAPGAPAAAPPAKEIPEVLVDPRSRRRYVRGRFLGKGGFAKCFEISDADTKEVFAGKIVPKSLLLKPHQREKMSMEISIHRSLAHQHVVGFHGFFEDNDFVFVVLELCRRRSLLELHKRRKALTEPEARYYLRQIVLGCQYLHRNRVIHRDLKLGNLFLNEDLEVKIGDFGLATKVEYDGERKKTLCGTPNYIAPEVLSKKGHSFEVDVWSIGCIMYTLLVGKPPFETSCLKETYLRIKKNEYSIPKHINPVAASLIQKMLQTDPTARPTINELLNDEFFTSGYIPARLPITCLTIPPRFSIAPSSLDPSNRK

| Compound | Ki [nM] |
| --- | --- |
| CN1C(=O)C(C)(C)CN(C2CCCC2)c2nc(Nc3ccc(NC(=O)C(F)(F)F)cc3)ncc21 [Compound I-78, N-(4-(9-cyclopentyl-6,7,8,9-tetrahydro-5,7,7-trimethyl-6-oxo-5H-pyrimido[4,5-b][1,4]diazepin-2-ylamino)phenyl)-2,2,2-trifluoroacetamide] | 10 to 100 |
| CN1C(=O)C(C)(C)CN(C2CCCC2)c2nc(Nc3cccc(N4CCCC4=O)c3)ncc21 [Compound I-149, 2-(3-(2-oxopyrrolidin-1-yl)phenylamino)-9-cyclopentyl-8,9-dihydro-5,7,7-trimethyl-5H-pyrimido[4,5-b][1,4]diazepin-6(7H)-one] | 10 to 100 |
| COc1cc(C(=O)NC2CCN(C)CC2)ccc1Nc1ncc2c(n1)N(C1CCCC1)CC1(CC1)C(=O)N2C [Compound I-76, 4-(9′-cyclopentyl-5′-methyl-6′-oxo-5′,6′,8′,9′-tetrahydrospiro[cyclopropane-1,7′-pyrimido[4,5-b][1,4]diazepine]-2′-ylamino)-3-methoxy-N-(1-methylpiperidin-4-yl)benzamide] | < 10 |
| COc1cc(C(=O)NC2CC2)ccc1Nc1ncc2c(n1)N(C1CCCC1)C[C@@H](C)C(=O)N2C [Compound I-184, (R)-4-(9-cyclopentyl-5,7-dimethyl-6-oxo-6,7,8,9-tetrahydro-5H-pyrimido[4,5-b][1,4]diazepin-2-ylamino)-N-cyclopropyl-3-methoxybenzamide] | < 10 |
| CN1C(=O)C(C)(C)CN(C2CCCC2)c2nc(Nc3ccc4c(c3)CCN4S(C)(=O)=O)ncc21 [Compound I-138, 9-Cyclopentyl-2-(1-methanesulfonyl-2,3-dihydro-1H-indol-5-ylamino)-5,7,7-trimethyl-5,7,8,9-tetrahydro-pyrimido[4,5-b][1,4]diazepin-6-one] | 10 to 100 |
| COc1cc(C(=O)NC(C)(C)C)ccc1Nc1ncc2c(n1)N(C1CCCC1)CC(C)(C)C(=O)N2C [Compound I-130, 4-(9-cyclopentyl-6,7,8,9-tetrahydro-5,7,7-trimethyl-6-oxo-5H-pyrimido[4,5-b][1,4]diazepin-2-ylamino)-N-tert-butyl-3-methoxybenzamide] | < 10 |
| CNC(=O)c1ccc(Nc2ncc3c(n2)N(CC2CC2)CC(C)(C)C(=O)N3C)c(OC)c1 [Compound I-58, 4-(9-(cyclopropylmethyl)-6,7,8,9-tetrahydro-5,7,7-trimethyl-6-oxo-5H-pyrimido[4,5-b][1,4]diazepin-2-ylamino)-3-methoxy-N-methylbenzamide] | < 10 |
| COc1cc(C(=O)NC[C@H](O)CO)ccc1Nc1ncc2c(n1)N(C1CCCC1)CC(C)(C)C(=O)N2C [Compound I-242, (S)-4-(9-cyclopentyl-5,7,7-trimethyl-6-oxo-6,7,8,9-tetrahydro-5H-pyrimido[4,5-b][1,4]diazepin-2-ylamino)-N-(2,3-dihydroxypropyl)-3-methoxybenzamide] | < 10 |
| CCOc1cc(C(=O)NC2CCN(C)CC2)ccc1Nc1ncc2c(n1)N(C1CCCC1)CC(C)(C)C(=O)N2C [Compound I-74, 4-(9-cyclopentyl-6,7,8,9-tetrahydro-5,7,7-trimethyl-6-oxo-5H-pyrimido[4,5-b][1,4]diazepin-2-ylamino)-3-ethoxy-N-(1-methylpiperidin-4-yl)benzamide] | < 10 |
| CC(C)Oc1cc(C(=O)NC2CCN(C)CC2)ccc1Nc1ncc2c(n1)N(C1CCCC1)CC(C)(C)C(=O)N2C [Compound I-51, 4-(9-cyclopentyl-6,7,8,9-tetrahydro-5,7,7-trimethyl-6-oxo-5H-pyrimido[4,5-b][1,4]diazepin-2-ylamino)-3-isopropoxy-N-(1-methylpiperidin-4-yl)benzamide] | < 10 |
| COC(=O)Nc1cccc(Nc2ncc3c(n2)N(C2CCCC2)CC(C)(C)C(=O)N3C)c1 [Compound I-155] | 10 to 100 |
| COc1cc(C(=O)N[C@@H](C)CO)ccc1Nc1ncc2c(n1)N(C1CCCC1)CC(C)(C)C(=O)N2C [Compound I-265] | < 10 |
| CC(=O)Nc1cc(Nc2ncc3c(n2)N(C2CCCC2)CC(C)(C)C(=O)N3C)ccc1C [Compound I-162, N-(5-(9-cyclopentyl-6,7,8,9-tetrahydro-5,7,7-trimethyl-6-oxo-5H-pyrimido[4,5-b][1,4]diazepin-2-ylamino)-2-methylphenyl)acetamide] | 10 to 100 |
| COc1cc(C(=O)NCC(O)C(F)(F)F)ccc1Nc1ncc2c(n1)N(C1CCCC1)CC(C)(C)C(=O)N2C (stereo not drawn) [Compound I-278, 4-(9-cyclopentyl-5,7,7-trimethyl-6-oxo-6,7,8,9-tetrahydro-5H-pyrimido[4,5-b][1,4]diazepin-2-ylamino)-3-methoxy-N-(3,3,3-trifluoro-2-hydroxypropyl)benzamide] | < 10 |
| COc1cc(C(=O)NC2CCN(C)CC2)ccc1Nc1ncc2c(n1)N(C1CCCC1)CC(C)(C)C(=O)N2C [Compound I-23, 4-(9-cyclopentyl-6,7,8,9-tetrahydro-5,7,7-trimethyl-6-oxo-5H-pyrimido[4,5-b][1,4]diazepin-2-ylamino)-3-methoxy-N-(1-methylpiperidin-4-yl)benzamide] | < 10 |
| COc1cc(C(=O)NCC2CCOCC2)ccc1Nc1ncc2c(n1)N(C1CCCC1)CC(C)(C)C(=O)N2C [Compound I-195, 4-(9-cyclopentyl-5,7,7-trimethyl-6-oxo-6,7,8,9-tetrahydro-5H-pyrimido[4,5-b][1,4]diazepin-2-ylamino)-3-methoxy-N-((tetrahydrofuran-2H-pyran-4-yl)methyl)benzamide] | < 10 |
| CN1C(=O)C(C)(C)CN(C2CCCC2)c2nc(Nc3ccc4cn[nH]c4c3)ncc21 [Compound I-47, 2-(1H-indazo-6-ylamino)-9-cyclopentyl-8,9-dihydro-5,7,7-trimethyl-5H-pyrimido[4,5-b][1,4]diazepin-6(7H)-one] | < 10 |
| COc1cc(C2=NCC(C)(C)N2)ccc1Nc1ncc2c(n1)N(C1CCCC1)CC(C)(C)C(=O)N2C [Compound I-257, 9-cyclopentyl-2-(4-(5,5-dimethyl-4,5-dihydro-1H-imidazol-2-yl)-2-methoxyphenylamino)-5,7,7-trimethyl-8,9-dihydro-5H-pyrimido[4,5-b][1,4]diazepin-6(7H)-one] | < 10 |
| COc1cc(C(=O)N[C@H]2CC[C@@H](F)CC2)ccc1Nc1ncc2c(n1)N(C1CCCC1)CC(C)(C)C(=O)N2C [Compound I-267, 4-(9-cyclopentyl-5,7,7-trimethyl-6-oxo-6,7,8,9-tetrahydro-5H-pyrimido[4,5-b][1,4]diazepin-2-ylamino)-N-((1S,4S)-4-fluorocylohexyl)-3-methoxybenzamide] | < 10 |
| CNC(=O)c1ccc(Nc2ncc3c(n2)N(C2CCCC2)CC(C)(C)C(=O)N3C)c(OC(C)C)c1 [Compound I-50, 4-(9-cyclopentyl-6,7,8,9-tetrahydro-5,7,7-trimethyl-6-oxo-5H-pyrimido[4,5-b][1,4]diazepin-2-ylamino)-3-isopropoxy-N-methylbenzamide] | 10 to 100 |

Other lines, results leading:

| Ki [nM] | Compound |
| --- | --- |
| < 10 | COc1cc(C(=O)NC2CCN(C)CC2)ccc1Nc1ncc2c(n1)N(C1CCCC1)CC1(CCC1)C(=O)N2C [Compound I-64, 4-(9′-cyclopentyl-5′-methyl-6′-oxo-5′,6′,8′,9′-tetrahydrospiro[cyclobutane-1,7′-pyrimido[4,5-b][1,4]diazepine]-2′-ylamino)-3-methoxy-N-(1-methylpiperidin-4-yl)benzamide] |
| < 10 | COc1cc(C(=O)NCCN2CCOCC2)ccc1Nc1ncc2c(n1)N(C1CCCC1)CC(C)(C)C(=O)N2C [Compound I-33, 4-(9-cyclopentyl-6,7,8,9-tetrahydro-5,7,7-trimethyl-6-oxo-5H-pyrimido[4,5-b][1,4]diazepin-2-ylamino)-3-methoxy-N-(2-morpholinoethyl)benzamide] |
| < 10 | COc1cc(C(=O)NC[C@@H]2CCCC[C@H]2O)ccc1Nc1ncc2c(n1)N(C1CCCC1)CC(C)(C)C(=O)N2C [Compound I-229, 4-(9-cyclopentyl-5,7,7-trimethyl-6-oxo-6,7,8,9-tetrahydro-5H-pyrimido[4,5-b][1,4]diazepin-2-ylamino)-N-(((1S,2R)-2-hydroxycyclohexyl)methyl)-3-methoxybenzamide] |
| < 10 | CCN1CCC(NC(=O)c2ccc(Nc3ncc4c(n3)N(C3CCCC3)CC(C)(C)C(=O)N4C)c(OC)c2)CC1 [Compound I-72] |
| < 10 | COC(=O)Nc1ccc(Nc2ncc3c(n2)N(C2CCCC2)CC(C)(C)C(=O)N3C)c(OC)c1 [Compound I-103, Methyl 4-(9-cyclopentyl-5,7,7-trimethyl-6-oxo-6,7,8,9-tetrahydro-5H-pyrimido[4,5-b][1,4]diazepin-2-ylamino)-3-methoxyphenylcarbamate] |
| < 10 | CCNC(=O)c1ccc(Nc2ncc3c(n2)N(C2CCCC2)CC(C)(C)C(=O)N3C)c(OC)c1 [Compound I-219, 4-(9-cyclopentyl-5,7,7-trimethyl-6-oxo-6,7,8,9-tetrahydro-5H-pyrimido[4,5-b][1,4]diazepin-2-ylamino)-N-ethyl-3-methoxybenzamide] |
| < 10 | COc1cc(C(=O)N2CC(OC)C2)ccc1Nc1ncc2c(n1)N(C1CCCC1)CC(C)(C)C(=O)N2C [Compound I-220, 9-cyclopentyl-2-(2-methoxy-4-(3-methoxyazetidine-1-carbonyl)phenylamino)-5,7,7-trimethyl-8,9-dihydro-5H-pyrimido[4,5-b][1,4]diazepin-6(7H)-one] |
| < 10 | COc1cc(C(=O)NCc2ccccn2)ccc1Nc1ncc2c(n1)N(C1CCCC1)CC(C)(C)C(=O)N2C [Compound I-255, 4-(9-cyclopentyl-5,7,7-trimethyl-6-oxo-6,7,8,9-tetrahydro-5H-pyrimido[4,5-b][1,4]diazepin-2-ylamino)-3-methoxy-N-(pyridin-2-ylmethyl)benzamide] |
| < 10 | COc1cc(C(=O)NCc2ccco2)ccc1Nc1ncc2c(n1)N(C1CCCC1)CC(C)(C)C(=O)N2C [Compound I-193, 4-(9-cyclopentyl-5,7,7-trimethyl-6-oxo-6,7,8,9-tetrahydro-5H-pyrimido[4,5-b][1,4]diazepin-2-ylamino)-N-(furan-2-ylmethyl)-3-methoxybenzamide] |
| < 10 | COc1cc(C(=O)NCC2CCC2)ccc1Nc1ncc2c(n1)N(C1CCCC1)CC(C)(C)C(=O)N2C [Compound I-246, N-(cyclobutylmethyl)-4-(9-cyclopentyl-5,7,7-trimethyl-6-oxo-6,7,8,9-tetrahydro-5H-pyrimido[4,5-b][1,4]diazepin-2-ylamino)-3-methoxybenzamide] |
